Data from ChEMBL document CHEMBL6074694, “4-Oxo-β-lactams as Covalent Inhibitors of the Mitochondrial Intramembrane Protease PARL” (ACS Med Chem Lett, 2024).
Active and inactive are the calls of the source. No cut-off for these calls is given here.

Tests used:
[1] = target: T1, Presenilin-associated rhomboid-like protein, mitochondrial (Homo sapiens, UniProt Q9H300); test: Inhibition of PARL (unknown origin) using Ac-RRRAVFKLA-aminomethyl coumarin as substrate preincubated for 30 mins followed by substrate addition and measured after 20 mins by plate reader assay
T1 sequence (Q9H300 whole entry): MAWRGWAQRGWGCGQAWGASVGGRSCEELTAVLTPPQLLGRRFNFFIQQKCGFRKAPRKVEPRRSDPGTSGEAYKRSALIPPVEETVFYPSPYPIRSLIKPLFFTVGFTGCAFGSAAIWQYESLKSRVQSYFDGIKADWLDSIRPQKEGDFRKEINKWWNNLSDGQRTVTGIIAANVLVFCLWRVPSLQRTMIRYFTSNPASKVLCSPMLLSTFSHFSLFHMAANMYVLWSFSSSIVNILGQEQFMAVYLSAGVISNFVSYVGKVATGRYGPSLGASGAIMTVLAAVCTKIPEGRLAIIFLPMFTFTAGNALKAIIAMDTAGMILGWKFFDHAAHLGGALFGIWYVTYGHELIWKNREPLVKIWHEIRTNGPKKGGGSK

[2] = (§1) Inhibition of FLAG-tagged PARL (unknown origin) overexpressed in HEK293-T-REx cells assessed as reduction in substrate cleavage using PGAM5-Myc as substrate incubated for overnight by densitometry assay; type: cell-based, Homo sapiens
HEK293-T-REx = test: as §1; type: cell-based; settings: Homo sapiens
[3] = Inhibition of recombinant human RHBDL2 using Ac-PVAKA-7-amino-4-methylcoumarin-3-(N-octyl)-acetamide as substrate preincubated for 30 mins followed by substrate addition and measured after 20 mins by plate reader assay

| IC50 [1] [nM] | Structure (SMILES) | further results |
| --- | --- | --- |
| 380 | CCC1(CC)C(=O)N(c2ccc(CN3CCN(c4ccc(OC)cc4)CC3)cc2)C1=O | – |
| 1930 | CCC1(CC)C(=O)N(c2cccc(CN3CCN(Cc4ccc(OC)cc4)CC3)c2)C1=O | – |
| 160 | CCC1(CC)C(=O)N(Cc2ccc(C(=O)OCc3ccccc3)cc2)C1=O | EC50 [2]: 220 nM |
| – | CCC1(Cc2ccccc2)C(=O)N(OS(=O)(=O)c2ccc(C)cc2)C1=O | inhibition (HEK293-T-REx): inactive |
| 1430 | CCC1(CC)C(=O)N(c2ccc(CN3CCN(Cc4ccc(Br)cc4)CC3)cc2)C1=O | IC50 [3]: 1.9 µM |
| 490 | CCC1(CC)C(=O)N(c2ccc(CN3CCN(c4ccc(Br)cc4)CC3)cc2)C1=O | IC50 [3]: 21 µM |
| 480 | CCC1(CC)C(=O)N(c2ccc(CN3CCN(c4cc(C)nc5ccc(Br)cc45)CC3)cc2)C1=O | – |
| 1000 | CCC1(CC)C(=O)N(c2cccc(CN3CCN(Cc4ccc(Br)cc4)CC3)c2)C1=O | – |
| 260 | CCC1(CC)C(=O)N(c2ccc(CN3CCN(c4ccnc5ccc(Br)cc45)CC3)cc2)C1=O | IC50 [3]: 35 µM |
| 560 | CCC1(CC)C(=O)N(c2ccc(CN3CCc4cc5c(cc4C3)OCO5)cc2)C1=O | – |
| 150 | CCC1(CC)C(=O)N(c2ccc(CN(Cc3ccccc3)Cc3ccccc3)cc2)C1=O | EC50 [2]: 300 nM |
| 890 | CCC1(CC)C(=O)N(c2cccc(CN3CCN(c4ccc(Br)cc4)CC3)c2)C1=O | – |
| 2600 | CCC1(CC)C(=O)N(c2ccc(CN3CCN(C(c4ccc(F)cc4)c4ccc(F)cc4)CC3)cc2)C1=O | – |
